# Experimental data as given in ChEMBL document CHEMBL4732271, “Novel Substituted Thiadiazoles as Splicing Modulators for Modulating Splicing of mRNA and Uses Thereof for Treating Diseases” (ACS Med Chem Lett, 2021).
# How the values were obtained:
# SMN2 pre-mRNA [1] = experiment: Modulation of SMN2 mRNA FL splicing in human spinal muscular atrophy patient fibroblasts incubated for 24 hrs by qPCR analysis; assay type: tissue-based
# SMN2 pre-mRNA [2] = experiment: Modulation of SMN2 mRNA D7 splicing in human spinal muscular atrophy patient fibroblasts incubated for 24 hrs by qPCR analysis; assay type: tissue-based
# SMN2 pre-mRNA [3] = experiment: Modulation of SMN2 mRNA FL splicing in human spinal muscular atrophy patient fibroblasts assessed as SMN2 protein potency incubated for 48 hrs by mesoscale discovery assay
Compound,EC50 (SMN2 pre-mRNA [1]),IC50 (SMN2 pre-mRNA [2]),EC50 (SMN2 pre-mRNA [3])
CN(c1nnc(-c2cc(F)c(-c3cnn(C)c3)cc2O)s1)[C@@H]1C[C@H]2CC[C@H](N2)[C@@H]1F,16 nM,0.01 nM,0.01 nM
CN(c1nnc(-c2ccc(-c3cn[nH]c3)cc2O)s1)[C@@H]1C[C@H]2CC[C@H](N2)[C@@H]1F,0.01 nM,0.01 nM,0.01 nM
COc1cc(-c2ccc(-c3nnc(N(C4CC4)[C@@H]4C[C@H]5CC[C@H](N5)C4F)s3)c(O)c2)cc(F)n1 (stereo partly drawn),16 nM,0.01 nM,0.01 nM
CN(c1nnc(-c2ccc(-c3cnn(C)c3)cc2O)s1)[C@H]1C[C@@H]2CCC[C@@H](N2)[C@H]1F,16 nM,0.01 nM,0.01 nM
CN(c1nnc(-c2ccc(-c3cnn(CF)c3)cc2O)s1)[C@@H]1C[C@H]2CC[C@H](N2)[C@@H]1F,16 nM,16 nM,0.01 nM
CN(c1nnc(-c2ccc(-c3cnn(C)c3)cc2O)s1)[C@@H]1C[C@H]2CC[C@H](N2)[C@@H]1F,16 nM,0.01 nM,0.01 nM
